Measured values: paper PMC4109310, “An atomic-resolution view of neofunctionalization in the evolution of apicomplexan lactate dehydrogenases” (eLife, 2014)

Legend:
RbMDH = target: T1, RbMDH (Rickettsia bellii, UniProt Q1RIT9); type: biochemical
T1 construct: gene mdh

AncMDH2 = type: biochemical, synthetic construct; details: 200 uM NADH, 50 mM Tris pH 7.5, 50 mM KCl, 25 C

T1 sequence (Q1RIT9 whole entry, looked up): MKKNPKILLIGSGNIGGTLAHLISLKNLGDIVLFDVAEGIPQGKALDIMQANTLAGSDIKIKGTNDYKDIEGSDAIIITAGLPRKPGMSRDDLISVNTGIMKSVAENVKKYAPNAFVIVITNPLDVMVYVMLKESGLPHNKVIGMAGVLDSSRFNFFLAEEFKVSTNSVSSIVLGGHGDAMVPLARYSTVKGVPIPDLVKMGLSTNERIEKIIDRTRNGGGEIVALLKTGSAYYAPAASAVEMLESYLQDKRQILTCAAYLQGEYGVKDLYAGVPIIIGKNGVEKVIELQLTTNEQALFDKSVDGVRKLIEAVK

| SMILES | KM (RbMDH) | Km (AncMDH2) |
| --- | --- | --- |
| O=C(O)CC(=O)C(=O)O [oxaloacetate] | RbMDH is a representative α-proteobacterial MDH from Rickettsia bellii |  |
| CC(=O)C(=O)O [pyruvate] |  | 20 mM |
